# pEC50: −log10 of the molar value.
# Target: hTREM2 (Homo sapiens, UniProt Q9NZC2)
# Assay: TREM2 activity by cellular Syk phosphorylation (AlphaScreen/AlphaLISA) in TREM2/DAP12-HEK cells, used for Examples 1-305
# Format: cell-based
# Set-up: expressed in transfected cells
# Settings: HEK293 Cells
# Summary of the method: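 Single-cell-cloned HEK293 cells overexpressing TREM2 and DAP12, seeded 20 h, exposed to test articles (1% final DMSO) for 45 min at room temperature. Lysates read for phospho-Syk (Tyr525/526) vs total Syk by AlphaScreen. Signal normalised as percent of control between isotype IgG and 100 nM anti-TREM2 antibody; 4-parameter logistic fit.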
# Sequence of hTREM2 (Q9NZC2 19-230): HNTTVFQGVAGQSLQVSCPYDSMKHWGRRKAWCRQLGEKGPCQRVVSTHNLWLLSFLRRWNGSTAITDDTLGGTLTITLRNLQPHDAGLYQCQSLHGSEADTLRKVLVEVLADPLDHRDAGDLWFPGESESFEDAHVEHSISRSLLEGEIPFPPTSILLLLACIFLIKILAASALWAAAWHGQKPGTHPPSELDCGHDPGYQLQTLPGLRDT
# Sequence of hTREM2 (O43914 22-113 partner): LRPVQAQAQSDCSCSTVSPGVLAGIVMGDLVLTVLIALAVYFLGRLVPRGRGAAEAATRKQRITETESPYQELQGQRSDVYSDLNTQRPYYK
pEC50,hTREM2 Emax,SMILES
6.30 to 7.30,+++ (Emax>150 and ≤250),"Cc1cc2c(-c3ccc(Cl)cc3F)nc(C3CCO[C@H](c4cnn(C)c4)C3)nc2nc1C (stereo in doubt) [Example 277, 4-(4-chloro-2-fluorophenyl)-6,7-dimethyl-2-((2S,4R)-2-(1-methyl-1H-pyrazol-4-yl)tetrahydro-2H-pyran-4-yl)pyrido[2,3-d]pyrimidine]"
≥ 7.30,+++ (Emax>150 and ≤250),"Cc1cnc2c(-c3ccc(Cl)cc3F)nc(N3CCO[C@@H](c4cnn(C5CC5)c4)C3)nc2n1 [Example 2, 4-(4-chloro-2-fluorophenyl)-2-((2S)-2-(1-cyclopropyl-1H-pyrazol-4-yl)-4-morpholinyl)-7-methylpteridine]"
≥ 7.30,+++ (Emax>150 and ≤250),"Cc1cc([C@H]2CN(c3nc(-c4ccc(Cl)cc4F)c4ncc(C)nc4n3)CCO2)ccn1 [Example 3, 4-(4-chloro-2-fluorophenyl)-7-methyl-2-((2S)-2-(2-methyl-4-pyridinyl)-4-morpholinyl)pteridine]"
6.30 to 7.30,+++ (Emax>150 and ≤250),"Cc1cnc2c(-c3ccc(Cl)cc3F)nc(N3CCO[C@@H](c4cnc(C)nc4)C3)nc2n1 [Example 4, 4-(4-chloro-2-fluorophenyl)-7-methyl-2-((2S)-2-(2-methyl-5-pyrimidinyl)-4-morpholinyl)pteridine]"
5.52 to 6.30,+++ (Emax>150 and ≤250),"Cc1cnc2c(-c3ccc(Cl)cc3F)nc(N3CCOC(C4CCOC4)C3)nc2n1 (stereo not drawn) [Example 5, 4-(4-chloro-2-fluorophenyl)-7-methyl-2-(2-(tetrahydro-3-furanyl)-4-morpholinyl)pteridine]"
6.30 to 7.30,+++ (Emax>150 and ≤250),"Cc1cnc2c(-c3ccc(F)cc3F)nc(N3CCO[C@@H](c4cnn(C)c4)C3)nc2n1 [Example 6, 4-(2,4-difluorophenyl)-7-methyl-2-((2S)-2-(1-methyl-1H-pyrazol-4-yl)-4-morpholinyl)pteridine]"
≥ 7.30,+++ (Emax>150 and ≤250),"Cc1cnc2c(-c3ccc(F)cc3F)nc(N3CCO[C@@H](c4cnn(C5CC5)c4)C3)nc2n1 [Example 7, 2-((2S)-2-(1-cyclopropyl-1H-pyrazol-4-yl)-4-morpholinyl)-4-(2,4-difluorophenyl)-7-methylpteridine]"
≥ 7.30,++ (Emax>100 and ≤150),"Cc1cc([C@H]2CN(c3nc(-c4ccc(F)cc4F)c4ncc(C)nc4n3)CCO2)ccn1 [Example 8, 4-(2,4-difluorophenyl)-7-methyl-2-((2S)-2-(2-methyl-4-pyridinyl)-4-morpholinyl)pteridine]"
≥ 7.30,+++ (Emax>150 and ≤250),"Cc1ccc(-c2nc(N3CCO[C@@H](c4cnn(C5CC5)c4)C3)nc3nc(C)cnc23)c(F)c1 [Example 9, 2-((2S)-2-(1-cyclopropyl-1H-pyrazol-4-yl)-4-morpholinyl)-4-(2-fluoro-4-methylphenyl)-7-methylpteridine]"
≥ 7.30,+++ (Emax>150 and ≤250),"Cc1ccc(-c2nc(N3CCO[C@@H](c4ccnc(C)c4)C3)nc3nc(C)cnc23)c(F)c1 [Example 10, 4-(2-fluoro-4-methylphenyl)-7-methyl-2-((2S)-2-(2-methyl-4-pyridinyl)-4-morpholinyl)pteridine]"
6.30 to 7.30,++ (Emax>100 and ≤150),"Cc1cnc2c(n1)nc(N1CCO[C@@H](c3cnn(C)c3)C1)nc2[C@H]1C[C@H](C(F)(F)F)C1 [Example 11, 7-methyl-2-((2S)-2-(1-methyl-1H-pyrazol-4-yl)-4-morpholinyl)-4-(trans-3-(trifluoromethyl)cyclobutyl)pteridine]"
5.52 to 6.30,++ (Emax>100 and ≤150),"Cc1cnc2c(n1)nc(N1CCO[C@@H](c3cnn(C4CC4)c3)C1)nc2[C@H]1C[C@@H](C(F)(F)F)C1 [Example 12, 2-((2S)-2-(1-cyclopropyl-1H-pyrazol-4-yl)-4-morpholinyl)-7-methyl-4-(cis-3-(trifluoromethyl)cyclobutyl)pteridine]"
≥ 7.30,+ (Emax>45 and ≤100),"Cc1cnc2c(n1)nc(N1CCO[C@@H](c3cnn(C4CC4)c3)C1)nc2[C@H]1C[C@H](C(F)(F)F)C1 [Example 13, 2-((2S)-2-(1-cyclopropyl-1H-pyrazol-4-yl)-4-morpholinyl)-7-methyl-4-(trans-3-(trifluoromethyl)cyclobutyl)pteridine]"
6.30 to 7.30,++ (Emax>100 and ≤150),"Cc1cc([C@H]2CN(c3nc4nc(C)cnc4c([C@H]4C[C@@H](C(F)(F)F)C4)n3)CCO2)ccn1 [Example 15, 7-methyl-2-((2S)-2-(2-methyl-4-pyridinyl)-4-morpholinyl)-4-(cis-3-(trifluoromethyl)cyclobutyl)pteridine]"
≥ 7.30,+ (Emax>45 and ≤100),"Cc1cc([C@H]2CN(c3nc4nc(C)cnc4c([C@H]4C[C@H](C(F)(F)F)C4)n3)CCO2)ccn1 [Example 16, 7-methyl-2-((2S)-2-(2-methyl-4-pyridinyl)-4-morpholinyl)-4-(trans-3-(trifluoromethyl)cyclobutyl)pteridine]"
≥ 7.30,++++ (Emax>250),"Cc1nc2nc(N3CCO[C@@H](c4cnn(C)c4)C3)nc(-c3ccc(C(F)(F)F)cc3F)c2nc1C [Example 17, 4-(2-fluoro-4-(trifluoromethyl)phenyl)-6,7-dimethyl-2-((2S)-2-(1-methyl-1H-pyrazol-4-yl)-4-morpholinyl)pteridine]"
≥ 7.30,+++ (Emax>150 and ≤250),"Cc1nc2nc(N3CCO[C@@H](c4cnn(C)c4)C3)nc(-c3cc(F)c(F)c(F)c3)c2nc1C [Example 18, 6,7-dimethyl-2-((2S)-2-(1-methyl-1H-pyrazol-4-yl)-4-morpholinyl)-4-(3,4,5-trifluorophenyl)pteridine]"
≥ 7.30,+++ (Emax>150 and ≤250),"Cc1nc2nc(N3CCO[C@@H](c4cnn(C)c4)C3)nc(-c3ccc(C(F)(F)F)nc3)c2nc1C [Example 19, 6,7-dimethyl-2-((2S)-2-(1-methyl-1H-pyrazol-4-yl)-4-morpholinyl)-4-(6-(trifluoromethyl)-3-pyridinyl)pteridine]"
5.52 to 6.30,+++ (Emax>150 and ≤250),"Cc1ccc(-c2nc(N3CCO[C@@H](c4cnn(C)c4)C3)nc3nc(C)c(C)nc23)cn1 [Example 20, 6,7-dimethyl-2-((2S)-2-(1-methyl-1H-pyrazol-4-yl)-4-morpholinyl)-4-(6-methyl-3-pyridinyl)pteridine]"
≥ 7.30,++++ (Emax>250),"Cc1nc2nc(N3CCO[C@@H](c4cnn(C)c4)C3)nc(-c3ccc(Cl)cc3F)c2nc1C [Example 21, 4-(4-chloro-2-fluorophenyl)-6,7-dimethyl-2-((2S)-2-(1-methyl-1H-pyrazol-4-yl)-4-morpholinyl)pteridine]"
≥ 7.30,++++ (Emax>250),"Cc1nc2nc(N3CCO[C@@H](c4cnn(C5CC5)c4)C3)nc(-c3ccc(Cl)cc3F)c2nc1C [Example 22, 4-(4-chloro-2-fluorophenyl)-2-((2S)-2-(1-cyclopropyl-1H-pyrazol-4-yl)-4-morpholinyl)-6,7-dimethylpteridine]"
≥ 7.30,++++ (Emax>250),"Cc1cc([C@H]2CN(c3nc(-c4ccc(Cl)cc4F)c4nc(C)c(C)nc4n3)CCO2)ccn1 [Example 23, 4-(4-chloro-2-fluorophenyl)-6,7-dimethyl-2-((2S)-2-(2-methyl-4-pyridinyl)-4-morpholinyl)pteridine]"
≥ 7.30,++++ (Emax>250),"Cc1nc2nc(N3CCOC(C4CCOC4)C3)nc(-c3ccc(Cl)cc3F)c2nc1C (stereo not drawn) [Example 26, 4-(4-chloro-2-fluorophenyl)-6,7-dimethyl-2-(2-(tetrahydro-3-furanyl)-4-morpholinyl)pteridine]"
5.52 to 6.30,++ (Emax>100 and ≤150),"Cc1nc2nc(N3CCO[C@@H](c4cnn(C)c4)C3)nc(N3C[C@@H]4[C@H](C3)C4(F)F)c2nc1C [Example 27, 4-((1R,5S)-6,6-difluoro-3-azabicyclo[3.1.0]hexan-3-yl)-6,7-dimethyl-2-((2S)-2-(1-methyl-1H-pyrazol-4-yl)-4-morpholinyl)pteridine]"
5.52 to 6.30,+++ (Emax>150 and ≤250),"COC1CN(c2nc(N3CCO[C@@H](c4cnn(C)c4)C3)nc3nc(C)c(C)nc23)C1 [Example 28, 4-(3-methoxy-1-azetidinyl)-6,7-dimethyl-2-((2S)-2-(1-methyl-1H-pyrazol-4-yl)-4-morpholinyl)pteridine]"
4.00 to 5.52,–,"Cc1nc2nc(N3CCO[C@@H](c4cnn(C)c4)C3)nc(N3CC(F)C3)c2nc1C [Example 29, 4-(3-fluoro-1-azetidinyl)-6,7-dimethyl-2-((2S)-2-(1-methyl-1H-pyrazol-4-yl)-4-morpholinyl)pteridine]"
5.52 to 6.30,++ (Emax>100 and ≤150),"Cc1nc2nc(N3CCO[C@@H](c4cnn(C)c4)C3)nc(N3CC(C(F)(F)F)C3)c2nc1C [Example 30, 6,7-dimethyl-2-((2S)-2-(1-methyl-1H-pyrazol-4-yl)-4-morpholinyl)-4-(3-(trifluoromethyl)-1-azetidinyl)pteridine]"
≥ 7.30,+++ (Emax>150 and ≤250),"Cc1nc2nc(N3CCO[C@@H](c4cnn(C)c4)C3)nc(-c3ccc(F)cc3F)c2nc1C [Example 31, 4-(2,4-difluorophenyl)-6,7-dimethyl-2-((2S)-2-(1-methyl-1H-pyrazol-4-yl)-4-morpholinyl)pteridine]"

SMILES,pEC50,hTREM2 Emax
"Cc1cnc2c(-c3ccc(Cl)cc3F)nc(N3CCO[C@@H](c4cnn(C)c4)C3)nc2n1 [Example 1, 4-(4-chloro-2-fluorophenyl)-7-methyl-2-((2S)-2-(1-methyl-1H-pyrazol-4-yl)-4-morpholinyl) pteridine]",≥ 7.30,++++ (Emax>250)
